Laboratory results as given in ChEMBL document CHEMBL1126549, “A novel series of selective, non-peptide inhibitors of angiotensin II binding to the AT2 site” (J Med Chem, 1993).

Assays:
[1] = target: T1, Angiotensin II receptor (AT-1) type-1 (Rattus norvegicus, UniProt P29089+P25095); test: Binding affinity towards Angiotensin II receptor, type 1 in rat isolated adrenal cortical microsomes; parameters: species or system Microsome
T1 sequence (P29089 whole entry): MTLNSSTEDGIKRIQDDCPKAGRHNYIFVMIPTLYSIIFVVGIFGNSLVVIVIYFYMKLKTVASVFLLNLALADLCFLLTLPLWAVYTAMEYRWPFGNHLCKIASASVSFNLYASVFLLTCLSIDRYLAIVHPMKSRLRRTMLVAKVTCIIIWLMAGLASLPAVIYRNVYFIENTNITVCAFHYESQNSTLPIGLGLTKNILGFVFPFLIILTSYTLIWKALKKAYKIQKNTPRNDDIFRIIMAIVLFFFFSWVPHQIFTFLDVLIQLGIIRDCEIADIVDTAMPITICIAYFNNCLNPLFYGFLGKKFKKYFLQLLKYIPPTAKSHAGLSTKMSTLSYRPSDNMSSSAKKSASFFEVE
T1 sequence (P25095 whole entry): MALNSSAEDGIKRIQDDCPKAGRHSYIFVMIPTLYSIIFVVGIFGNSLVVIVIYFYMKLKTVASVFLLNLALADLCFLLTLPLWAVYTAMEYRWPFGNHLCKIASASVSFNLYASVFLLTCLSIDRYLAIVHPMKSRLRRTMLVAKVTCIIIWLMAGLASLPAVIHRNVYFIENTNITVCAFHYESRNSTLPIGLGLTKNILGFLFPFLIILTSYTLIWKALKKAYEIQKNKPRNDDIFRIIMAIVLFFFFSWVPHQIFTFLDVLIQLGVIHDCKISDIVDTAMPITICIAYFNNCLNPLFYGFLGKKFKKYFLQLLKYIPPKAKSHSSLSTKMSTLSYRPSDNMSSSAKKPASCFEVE

[2] = target: T2, Type-2 angiotensin II receptor (Rattus norvegicus, UniProt P35351); test: Binding affinity towards Angiotensin II receptor, type 2 in rat isolated adrenal medullary microsomes; parameters: species or system Adrenal medulla, Microsome
T2 sequence (P35351 whole entry): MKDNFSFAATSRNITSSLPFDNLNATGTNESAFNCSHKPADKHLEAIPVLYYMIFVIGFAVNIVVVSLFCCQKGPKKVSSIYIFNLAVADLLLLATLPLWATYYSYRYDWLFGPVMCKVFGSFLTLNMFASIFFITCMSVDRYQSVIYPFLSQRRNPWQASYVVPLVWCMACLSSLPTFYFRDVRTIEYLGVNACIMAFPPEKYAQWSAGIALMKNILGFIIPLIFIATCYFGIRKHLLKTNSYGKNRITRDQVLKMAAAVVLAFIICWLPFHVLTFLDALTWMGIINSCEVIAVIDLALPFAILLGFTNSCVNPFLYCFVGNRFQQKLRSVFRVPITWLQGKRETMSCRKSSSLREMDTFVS

[3] = target: T2, Type-2 angiotensin II receptor; test: Binding affinity towards angiotensin II AT2 receptor subtype was determined using rat isolated adrenal […] microsomes

COC(=O)C1Cc2c(C)cccc2CN1C(=O)C(c1ccccc1)c1ccccc1 (centres undefined)
IC50 [1]: > 10 µM | IC50 [2]: 5 µM

Cc1cccc2c1CC(C(=O)O)N(C(=O)C(c1ccccc1)c1ccccc1)C2 (centres undefined)
IC50 [1]: > 10 µM | IC50 [2]: 0.3 µM

O=C(O)C1Cc2c(cccc2-c2ccccc2)CN1C(=O)C(c1ccccc1)c1ccccc1 (centres undefined)
IC50 [1]: > 10 µM | IC50 [2]: 0.04 µM

COC(=O)C1Cc2c(Cc3ccc(OC)cc3)cccc2CN1C(=O)C(c1ccccc1)c1ccccc1 (centres undefined)
IC50 [1]: > 10 µM | IC50 [2]: > 10 µM

O=C(O)C1Cc2ccccc2CN1C(=O)C(c1ccccc1)c1ccccc1 (centres undefined)
IC50 [1]: > 30 µM | IC50 [2]: 2.5 µM

O=C(O)C1Cc2cc(-c3ccccc3)ccc2CN1C(=O)C(c1ccccc1)c1ccccc1 (centres undefined)
IC50 [1]: > 10 µM | IC50 [2]: 0.03 µM

CN(C(=O)N1Cc2ccc(Oc3ccccc3)cc2CC1C(=O)O)c1ccccc1 (centres undefined)
IC50 [1]: > 10 µM | IC50 [2]: 0.3 µM

COc1ccc(Cc2cccc3c2CC(C(=O)O)N(C(=O)N(c2ccccc2)c2ccccc2)C3)cc1 (centres undefined)
IC50 [1]: 10 µM | IC50 [2]: 0.2 µM

COc1ccc(Cn2cnc3c2C[C@@H](C(=O)O)N(C(=O)C(c2ccccc2)c2ccccc2)C3)cc1C
IC50 [3]: 0.01 µM

CCCCCc1cccc2c1CC(C(=O)O)N(C(=O)C(c1ccccc1)c1ccccc1)C2 (centres undefined)
IC50 [1]: > 10 µM | IC50 [2]: 0.04 µM

COc1ccc(Cc2cccc3c2CC(C(=O)O)N(C(=O)C(c2ccccc2)c2ccccc2)C3)cc1C (centres undefined)
IC50 [1]: 5 µM | IC50 [2]: 0.1 µM

COc1ccc(Cc2cccc3c2CC(C(=O)O)N(C(=O)C(c2ccccc2)c2ccccc2)C3)cc1 (centres undefined)
IC50 [1]: 7 µM | IC50 [2]: 0.09 µM

COc1ccc(-c2cccc3c2CC(C(=O)O)N(C(=O)C(c2ccccc2)c2ccccc2)C3)cc1C (centres undefined)
IC50 [1]: > 10 µM | IC50 [2]: 0.07 µM

COC(=O)C1Cc2c(Cc3ccccc3)cccc2CN1C(=O)C(c1ccccc1)c1ccccc1 (centres undefined)
IC50 [1]: > 10 µM | IC50 [2]: 7 µM

COc1ccc(Cc2cccc3c2CC(C(=O)O)N(C(=O)N(C)c2ccccc2)C3)cc1 (centres undefined)
IC50 [1]: > 10 µM | IC50 [2]: 0.4 µM

O=C(O)C1Cc2cc(Oc3ccccc3)ccc2CN1C(=O)C(c1ccccc1)c1ccccc1 (centres undefined)
IC50 [1]: > 10 µM | IC50 [2]: 0.06 µM

COc1ccc(-c2cccc3c2CC(C(=O)O)N(C(=O)C(c2ccccc2)c2ccccc2)C3)cc1 (centres undefined)
IC50 [1]: 10 µM | IC50 [2]: 0.04 µM

O=C(O)C1Cc2cc(O)ccc2CN1C(=O)C(c1ccccc1)c1ccccc1 (centres undefined)
IC50 [1]: > 10 µM | IC50 [2]: 0.6 µM

COC(=O)C1Cc2c(cccc2-c2ccc(OC)cc2)CN1C(=O)C(c1ccccc1)c1ccccc1 (centres undefined)
IC50 [1]: > 10 µM | IC50 [2]: 2 µM

COC(=O)C1Cc2c(cccc2-c2ccccc2)CN1C(=O)C(c1ccccc1)c1ccccc1 (centres undefined)
IC50 [1]: > 10 µM | IC50 [2]: 2 µM

O=C(O)C1Cc2c(Cc3ccccc3)cccc2CN1C(=O)C(c1ccccc1)c1ccccc1 (stereo in doubt; 21)
IC50 [1]: 10 µM | IC50 [2]: 0.09 µM

O=C(O)C1Cc2c(Cc3ccccc3)cccc2CN1C(=O)C(c1ccccc1)c1ccccc1 (stereo in doubt; 22)
IC50 [2]: 0.07 µM

O=C(O)C1Cc2c(Cc3ccccc3)cccc2CN1C(=O)C(c1ccccc1)c1ccccc1 (stereo in doubt; 23)
IC50 [1]: 4 µM | IC50 [2]: 0.08 µM
